Earlier results as cited in PubChem BioAssay AID1259409 (Chemical Carcinogenesis Research Information System (CCRIS), 2018).

System: rodent chemically induced tumor inhibition, incidence and multiplicity
Assay: CCRIS tumor inhibitor studies

CSc1ccc(O)cc1
tumour outcome (control, treated, inhibition, significance) (Carcinogen: BENZO[A]PYRENE, 50-32-8, Dose [Inhibitor]: 0.03 MMOL/G OF DIET DAILY STARTING 7 D BEFORE AND CONTINUING THROUGH 3 D AFTER CARCINOGEN TREATMENT FOLLOWED BY OBSERVAT, Route [Inhibitor]: ORAL, Species: MOUSE, Strain/Sex: ICR/FEMALE, Target Tissue: Type of Lesion: FORESTOMACH: NEOPLASM, Dose [Carcinogen]: 1 MG IN 0.2 ML CORN OIL 2/WK FOR 4 WK, Promoter: NONE USED): 100%, 89%, 11%, not significant

O=[As]O
tumour outcome (control, treated, inhibition, significance) (Carcinogen: NONE USED, Dose [Inhibitor]: 10 PPM IN DRINKING WATER DAILY FOR DURATION OF STUDY (STUDY DURATION: 16 MO), Route [Inhibitor]: ORAL, Species: MOUSE, Strain/Sex: C3H/FEMALE, Target Tissue: Type of Lesion: MAMMARY GLAND: ADENOCARCINOMA, Promoter: NONE USED): 82%, 27%, 67%, not calculated | tumour outcome (control, treated, inhibition, significance) (Carcinogen: NONE USED, Dose [Inhibitor]: 80 PPM IN DRINKING WATER DAILY STARTING AT AGE 1 MO AND CONTINUING FOR LIFE (STUDY DURATION: LIFE), Route [Inhibitor]: ORAL, Species: MOUSE, Strain/Sex: C3H/FEMALE, Target Tissue: Type of Lesion: MAMMARY GLAND: TUMOR, Promoter: NONE USED): 82%, 40%, 51%, p 0.02

CCOC(=O)/C=C\C(=O)OCC
tumour outcome (control, treated, inhibition, significance) (Carcinogen: BUTYLATED HYDROXYANISOLE, 25013-16-5, Dose [Inhibitor]: 0, 0.2% IN DIET SIMULTANEOUSLY WITH CARCINOGEN FOR 104 WK (STUDY DURATION: 104 WK), Route [Inhibitor]: ORAL, Species: RAT, Strain/Sex: F344/MALE, Target Tissue: Type of Lesion: FORESTOMACH: PAPILLOMA, Dose [Carcinogen]: 2% IN DIET FOR 104 WK, Promoter: NONE USED): 88%, 27%, 69%, p<0.01 | tumour outcome (control, treated, inhibition, significance) (Carcinogen: BUTYLATED HYDROXYANISOLE, 25013-16-5, Dose [Inhibitor]: 0, 0.2% IN DIET SIMULTANEOUSLY WITH CARCINOGEN FOR 104 WK (STUDY DURATION: 104 WK), Route [Inhibitor]: ORAL, Species: RAT, Strain/Sex: F344/MALE, Target Tissue: Type of Lesion: FORESTOMACH: SQUAMOUS CELL CARCINOMA, Dose [Carcinogen]: 2% IN DIET FOR 104 WK, Promoter: NONE USED): 20%, 5%, 75%, not calculated | tumour outcome (control, treated, inhibition, significance) (Carcinogen: N-BUTYL-N-(4-HYDROXYBUTYL)NITROSAMINE, 3817-11-6, Dose [Inhibitor]: 0, 0.15% IN DRINKING WATER FOR 31 WK BEGINNING POST CARCINOGEN DOSE (STUDY DURATION: 36 WK), Route [Inhibitor]: ORAL, Species: RAT, Strain/Sex: F344/MALE, Target Tissue: Type of Lesion: URINARY BLADDER: CARCINOMA, Dose [Carcinogen]: 0.05% IN DRINKING WATER FOR 4 WK, Promoter: BUTYLATED HYDROXYANISOLE, 25013-16-5): 5/15 (33%), 2/15 (13%), 61%, not significant | tumour outcome (control, treated, inhibition, significance) (Carcinogen: N-BUTYL-N-(4-HYDROXYBUTYL)NITROSAMINE, 3817-11-6, Dose [Inhibitor]: 0, 0.15% IN DRINKING WATER FOR 31 WK BEGINNING POST CARCINOGEN DOSE (STUDY DURATION: 36 WK), Route [Inhibitor]: ORAL, Species: RAT, Strain/Sex: F344/MALE, Target Tissue: Type of Lesion: URINARY BLADDER: PAPILLOMA, Dose [Carcinogen]: 0.05% IN DRINKING WATER FOR 4 WK, Promoter: BUTYLATED HYDROXYANISOLE, 25013-16-5): 8/15 (53%), 10/15 (67%), -26%, not significant | tumour outcome (control, treated, inhibition, significance) (Carcinogen: N-BUTYL-N-(4-HYDROXYBUTYL)NITROSAMINE, 3817-11-6, Dose [Inhibitor]: 0, 0.15% IN DRINKING WATER FOR 31 WK BEGINNING POST CARCINOGEN DOSE (STUDY DURATION: 36 WK), Route [Inhibitor]: ORAL, Species: RAT, Strain/Sex: F344/MALE, Target Tissue: Type of Lesion: URINARY BLADDER: PAPILLOMA, Dose [Carcinogen]: 0.05% IN DRINKING WATER FOR 4 WK, Promoter: SODIUM BICARBONATE, 144-55-8): 9/15 (60%), 9/15 (60%), 0%, not significant | tumour outcome (control, treated, inhibition, significance) (Carcinogen: N-METHYL-N'-NITRO-N-NITROSOGUANIDINE, 70-25-7, Dose [Inhibitor]: 0, 0.2% IN DIET BEGINNING 1 WK POST CARCINOGEN DOSE AND CONTINUING FOR 51 WK (STUDY DURATION: 52 WK), Route [Inhibitor]: ORAL, Species: RAT, Strain/Sex: F344/MALE, Target Tissue: Type of Lesion: FORESTOMACH: CARCINOMA, Dose [Carcinogen]: 150 MG/KG ONCE, Promoter: BUTYLATED HYDROXYANISOLE, 25013-16-5): 5/14 (36%), 0/14 (0%), 100%, p<0.05 | tumour outcome (control, treated, inhibition, significance) (Carcinogen: N-METHYL-N'-NITRO-N-NITROSOGUANIDINE, 70-25-7, Dose [Inhibitor]: 0, 0.2% IN DIET BEGINNING 1 WK POST CARCINOGEN DOSE AND CONTINUING FOR 51 WK (STUDY DURATION: 52 WK), Route [Inhibitor]: ORAL, Species: RAT, Strain/Sex: F344/MALE, Target Tissue: Type of Lesion: FORESTOMACH: PAPILLOMA, Dose [Carcinogen]: 150 MG/KG ONCE, Promoter: BUTYLATED HYDROXYANISOLE, 25013-16-5): 14/14 (100%), 11/14 (79%), 21%, not calculated | tumour outcome (control, treated, inhibition, significance) (Carcinogen: N-METHYL-N'-NITRO-N-NITROSOGUANIDINE, 70-25-7, Dose [Inhibitor]: 0, 0.2% IN DIET BEGINNING 1 WK POST CARCINOGEN DOSE AND CONTINUING FOR 51 WK (STUDY DURATION: 52 WK), Route [Inhibitor]: ORAL, Species: RAT, Strain/Sex: F344/MALE, Target Tissue: Type of Lesion: FORESTOMACH: SARCOMA, Dose [Carcinogen]: 150 MG/KG ONCE, Promoter: BUTYLATED HYDROXYANISOLE, 25013-16-5): 1/14 (7%), 4/14 (29%), -314%, not calculated | tumour outcome (control, treated, inhibition, significance) (Carcinogen: N-METHYL-N'-NITRO-N-NITROSOGUANIDINE, 70-25-7, Dose [Inhibitor]: 0, 0.2% IN DIET BEGINNING 1 WK POST CARCINOGEN DOSE AND CONTINUING FOR 51 WK (STUDY DURATION: 52 WK), Route [Inhibitor]: ORAL, Species: RAT, Strain/Sex: F344/MALE, Target Tissue: Type of Lesion: FORESTOMACH: SQUAMOUS CELL CARCINOMA, Dose [Carcinogen]: 150 MG/KG ONCE, Promoter: BUTYLATED HYDROXYANISOLE, 25013-16-5): 14/14 (100%), 5/14 (36%), 64%, p<0.001

CC/C=C\C/C=C\C/C=C\C/C=C\C/C=C\C/C=C\CCC(=O)O
tumour outcome (control, treated, inhibition, significance) (Carcinogen: 7,12-DIMETHYLBENZ[A]ANTHRACENE, 57-97-6, Dose [Inhibitor]: 0, 0.5 ML 2/WK FOR 19 WK BEGINNING 1 WK POST CARCINOGEN DOSE ADMINISTERED TO RATS FED HIGH-FAT (20% CORN OIL) DIETS (STU, Route [Inhibitor]: GAVAGE, Species: RAT, Strain/Sex: SPRAGUE-DAWLEY/FEMALE, Target Tissue: Type of Lesion: MAMMARY GLAND: ADENOCARCINOMA, Dose [Carcinogen]: 5 MG ONCE AT 50 D OF AGE, Promoter: NONE USED): 24/30 (80%), 6/24 (25%), 69%, p<0.05

CC(=O)OCC(=O)[C@@]1(O)CC[C@H]2[C@@H]3CCC4=CC(=O)CC[C@]4(C)[C@H]3C(=O)C[C@@]21C
tumour outcome (control, treated, inhibition, significance) (Carcinogen: 1,2-DIMETHYLHYDRAZINE DIHYDROCHLORIDE, 306-37-6, Dose [Inhibitor]: 0, 2.5 MG/KG IN PEANUT OIL ON DAYS 1 AND 3 OF STUDY THEN 1/WK FOR 30 WK (STUDY DURATION: 31 WK), Route [Inhibitor]: SUBCUTANEOUS, Species: RAT, Strain/Sex: SPRAGUE-DAWLEY/MALE, Target Tissue: Type of Lesion: COLON: ADENOCARCINOMA, Dose [Carcinogen]: 9 MG/KG 1/WK FOR 7 WK THEN 19.4 MG/KG 1/WK FOR 13 WK, Promoter: NONE USED): 14/14 (100%), 12/13 (92%), 8%, not significant | tumour outcome (control, treated, inhibition, significance) (Carcinogen: 1,2-DIMETHYLHYDRAZINE DIHYDROCHLORIDE, 306-37-6, Dose [Inhibitor]: 0, 2.5 MG/KG IN PEANUT OIL ON DAYS 1 AND 3 OF STUDY THEN 1/WK FOR 30 WK (STUDY DURATION: 31 WK), Route [Inhibitor]: SUBCUTANEOUS, Species: RAT, Strain/Sex: SPRAGUE-DAWLEY/MALE, Target Tissue: Type of Lesion: SMALL INTESTINE: ADENOCARCINOMA, Dose [Carcinogen]: 9 MG/KG 1/WK FOR 7 WK THEN 19.4 MG/KG 1/WK FOR 13 WK, Promoter: NONE USED): 13/14 (93%), 10/13 (77%), 17%, not significant

S=C=NCc1cc2ccccc2c2ccccc12
outcome (Carcinogen: BENZO[A]PYRENE, 50-32-8, Dose [Inhibitor]: 0, 5 UMOL IN ACETONE 4 HR PRIOR TO CARCINOGEN DOSE (STUDY DURATION: 20 WK), Route [Inhibitor]: DERMAL, Species: MOUSE, Strain/Sex: STRAIN-A/FEMALE, Target Tissue: Type of Lesion: SKIN: TUMOR, Dose [Carcinogen]: 0.1 UMOL IN ACETONE ONCE, Promoter: 12-O-TETRADECANOYLPHORBOL-13-ACETATE, 16561-29-8): 85%, 95%, -12%, not significant at 15 wk; 95%, 95%, 0%, not significant at 20 wk
